How the values were obtained:
Format in all cases: in vivo
[1] = test system: Echinochloa crus-galli var. crus-galli; experiment: Test Example 3: herbicidal effect by foliage application, Wagner pot (symbol H); settings: application herbicide amount 320 g/ha
Procedure, shortened: (§1)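 Seeds sown in alluvial soil kept under 0.1–0.5 cm water, greenhouse 25–30 °C; 14 d growth. Leaves treated by small sprayer with water-diluted emulsion at a predetermined rate. Effect graded by set scale, 3 weeks.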

Leptochloa chinensis = experiment: Test Example 3: herbicidal effect by foliage application, Wagner pot (symbol D); settings: application herbicide amount 320 g/ha
Procedure, shortened: as §1

Cyperus difformis = experiment: Test Example 3: herbicidal effect by foliage application, Wagner pot (symbol E); settings: application herbicide amount 320 g/ha
Procedure, shortened: as §1

[2] = test system: directly sowed rice plant; experiment: Test Example 3: effect on crop by foliage application, Wagner pot (symbol b); settings: application herbicide amount 320 g/ha
Procedure, shortened: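 Alluvial soil in a 1/10000-are Wagner pot was flooded to a water depth of 0.1–0.5 cm. Echinochloa crus-galli var. crus-galli, Leptochloa chinensis, Cyperus difformis and rice were sown into it and grown in a greenhouse at 25–30 °C.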

Digitaria ciliaris [3] = experiment: Test Example 4: herbicidal effect by soil treatment (symbol F); settings: application herbicide amount 320 g/ha
Description: (§2) Herbicidal Effect Test by Soil Treatment
(§3) Sterilized diluvial soil was placed in a plastic box having a length of 21 cm, a width of 13 cm, and a depth of 7 cm. Each of the seeds of Digitaria ciliaris, Setaria viridis, Echinochloa crus-galli var. crus-galli, Avena fatua, Alopecurus myosuroides, Lolium multiflorum Lam., Apera spica-venti, Abutilon theophrasti, Amaranthus retroflexus, Chenopodium album, Stellaria media, Galium spurium, Veronica persica, corn, soybean, rice, wheat, beet, and rapeseed was sowed in a spot-like manner and was covered with the soil of a thickness of about 1.5 cm. Subsequently, the emulsion agent of the compound present invention prepared in accordance with Formulation Example 2 was diluted with water so as to be a predetermined herbicide amount and the diluted emulsion agent was uniformly applied to the surface of the soil with a small-size spray. The plastic box was placed in a greenhouse of 25° C. to 30° C. to grow plant. 3 weeks later from the herbicide application, the effect to each plant was investigated in accordance with the criteria of Test Example 1.

Setaria viridis [4] = experiment: Test Example 4: herbicidal effect by soil treatment (symbol G); settings: application herbicide amount 320 g/ha
Description: as §2, §3

[5] = test system: Echinochloa crus-galli var. crus-galli; experiment: Test Example 4: herbicidal effect by soil treatment (symbol H); settings: application herbicide amount 320 g/ha
Description: as §2, §3

Avena fatua [6] = experiment: Test Example 4: herbicidal effect by soil treatment (symbol I); settings: application herbicide amount 320 g/ha
Description: as §2, §3

Alopecurus myosuroides [7] = experiment: Test Example 4: herbicidal effect by soil treatment (symbol J); settings: application herbicide amount 320 g/ha
Description: as §2, §3

Lolium multiflorum Lam. [8] = experiment: Test Example 4: herbicidal effect by soil treatment (symbol K); settings: application herbicide amount 320 g/ha
Description: as §2, §3

Apera spica-venti [9] = experiment: Test Example 4: herbicidal effect by soil treatment (symbol L); settings: application herbicide amount 320 g/ha
Description: as §2, §3

Abutilon theophrasti [10] = experiment: Test Example 4: herbicidal effect by soil treatment (symbol M); settings: application herbicide amount 320 g/ha
Description: as §2, §3

Amaranthus retroflexus [11] = experiment: Test Example 4: herbicidal effect by soil treatment (symbol N); settings: application herbicide amount 320 g/ha
Description: as §2, §3

Stellaria media [12] = experiment: Test Example 4: herbicidal effect by soil treatment (symbol P); settings: application herbicide amount 320 g/ha
Description: as §2, §3

Veronica persica [13] = experiment: Test Example 4: herbicidal effect by soil treatment (symbol R); settings: application herbicide amount 320 g/ha
Description: as §2, §3

corn [14] = experiment: Test Example 4: effect on crop by soil treatment (symbol c); settings: application herbicide amount 320 g/ha
Description: as §2
(§4) Sterilized diluvial soil was placed in a plastic box having a length of 21 cm, a width of 13 cm, and a depth of 7 cm. Each of the seeds of Digitaria ciliaris, Setaria viridis, Echinochloa crus-galli var. crus-galli, Avena fatua, Alopecurus myosuroides, Lolium multiflorum Lam., Apera spica-venti, Abutilon theophrasti, Amaranthus retroflexus, Chenopodium album, Stellaria media, Galium spurium, Veronica persica, corn, soybean, rice, wheat, beet, and rapeseed was sowed in a spot-like manner and was covered with the soil of a thickness of about 1.5 cm. […] The plastic box was placed in a greenhouse of 25° C. to 30° C. to grow plant.

soybean [15] = experiment: Test Example 4: effect on crop by soil treatment (symbol d); settings: application herbicide amount 320 g/ha
Description: as §2, §4

rice = experiment: Test Example 4: effect on crop by soil treatment (symbol b); settings: application herbicide amount 320 g/ha
Description: as §2, §4

wheat [16] = experiment: Test Example 4: effect on crop by soil treatment (symbol e); settings: application herbicide amount 320 g/ha
Description: as §2, §4

beet [17] = experiment: Test Example 4: effect on crop by soil treatment (symbol f); settings: application herbicide amount 320 g/ha
Description: as §2, §4

rapeseed [18] = experiment: Test Example 4: effect on crop by soil treatment (symbol g); settings: application herbicide amount 320 g/ha
Description: as §2, §4

Digitaria ciliaris [19] = experiment: Test Example 5: herbicidal effect by foliage application, plastic box (symbol F); settings: 320 g/ha, 3 weeks after application
Procedure, shortened: (§5)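 Greenhouse foliar test: seedlings at 14 days, grown 25° C. to 30° C. in sterilized diluvial soil; compound applied as an aqueous dilution of an emulsion; response read 3 weeks after spraying.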

Setaria viridis [20] = experiment: Test Example 5: herbicidal effect by foliage application, plastic box (symbol G); settings: 320 g/ha, 3 weeks after application
Procedure, shortened: as §5

[21] = test system: Echinochloa crus-galli var. crus-galli; experiment: Test Example 5: herbicidal effect by foliage application, plastic box (symbol H); settings: 320 g/ha, 3 weeks after application
Procedure, shortened: as §5

Avena fatua [22] = experiment: Test Example 5: herbicidal effect by foliage application, plastic box (symbol I); settings: 320 g/ha, 3 weeks after application
Procedure, shortened: as §5

Alopecurus myosuroides [23] = experiment: Test Example 5: herbicidal effect by foliage application, plastic box (symbol J); settings: 320 g/ha, 3 weeks after application
Procedure, shortened: as §5

Lolium multiflorum Lam. [24] = experiment: Test Example 5: herbicidal effect by foliage application, plastic box (symbol K); settings: 320 g/ha, 3 weeks after application
Procedure, shortened: as §5

Apera spica-venti [25] = experiment: Test Example 5: herbicidal effect by foliage application, plastic box (symbol L); settings: 320 g/ha, 3 weeks after application
Procedure, shortened: as §5

Abutilon theophrasti [26] = experiment: Test Example 5: herbicidal effect by foliage application, plastic box (symbol M); settings: 320 g/ha, 3 weeks after application
Procedure, shortened: as §5

Amaranthus retroflexus [27] = experiment: Test Example 5: herbicidal effect by foliage application, plastic box (symbol N); settings: 320 g/ha, 3 weeks after application
Procedure, shortened: as §5

Stellaria media [28] = experiment: Test Example 5: herbicidal effect by foliage application, plastic box (symbol P); settings: 320 g/ha, 3 weeks after application
Procedure, shortened: as §5

Galium spurium = experiment: Test Example 5: herbicidal effect by foliage application, plastic box (symbol Q); settings: 320 g/ha, 3 weeks after application
Procedure, shortened: as §5

Veronica persica [29] = experiment: Test Example 5: herbicidal effect by foliage application, plastic box (symbol R); settings: 320 g/ha, 3 weeks after application
Procedure, shortened: as §5

corn [30] = experiment: Test Example 5: effect on crop by foliage application, plastic box (symbol c); settings: 320 g/ha, 3 weeks after application
Procedure, shortened: (§6)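 A greenhouse held between 25° C. and 30° C. was used to grow plants sown spot-wise, beneath ~1.5 cm of soil, in boxes of sterilized diluvial soil.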

soybean [31] = experiment: Test Example 5: effect on crop by foliage application, plastic box (symbol d); settings: 320 g/ha, 3 weeks after application
Procedure, shortened: as §6

rice plant = experiment: Test Example 5: effect on crop by foliage application, plastic box (symbol b); settings: 320 g/ha, 3 weeks after application
Procedure, shortened: as §6

wheat [32] = experiment: Test Example 5: effect on crop by foliage application, plastic box (symbol e); settings: 320 g/ha, 3 weeks after application
Procedure, shortened: as §6

beet [33] = experiment: Test Example 5: effect on crop by foliage application, plastic box (symbol f); settings: 320 g/ha, 3 weeks after application
Procedure, shortened: as §6

rapeseed [34] = experiment: Test Example 5: effect on crop by foliage application, plastic box (symbol g); settings: 320 g/ha, 3 weeks after application
Procedure, shortened: as §6

In the case of CCOC(=O)C(C(=O)C1CCCC1)C1CC(O)=C(c2c(C)cc(C)cc2C)C1=O (stereo not drawn) [2-027], the “herbicidal effect on H (Echinochloa crus-galli var. crus-galli), grade 0-5” value [1] was 3 (Herbicidal ratio of 40% or higher and lower than 70%), the “herbicidal effect on D (Leptochloa chinensis), grade 0-5” value (Leptochloa chinensis) was 0 (Herbicidal ratio of 5% or lower (almost no effect)) and the “herbicidal effect on E, grade 0-5” value (Cyperus difformis) was 0 (Herbicidal ratio of 5% or lower (almost no effect)). For the same compound, the “effect on crop b (directly sowed rice plant), grade 0-5” value [2] was 5 (Herbicidal ratio of 90% or more (almost completely withered)), the “F: Digitaria ciliaris, herbicidal effect grade” value (Digitaria ciliaris [3]) was 3 (Herbicidal ratio of 40% or higher and lower than 70%) and the “G: Setaria viridis, herbicidal effect grade” value (Setaria viridis [4]) was 5 (Herbicidal ratio of 90% or more (almost completely withered)). For the same compound, the “H: Echinochloa crus-galli var. crus-galli, herbicidal effect grade” value [5] was 3 (Herbicidal ratio of 40% or higher and lower than 70%), the “I: Avena fatua, herbicidal effect grade” value (Avena fatua [6]) was 0 (Herbicidal ratio of 5% or lower (almost no effect)) and the “J: Alopecurus myosuroides, herbicidal effect grade” value (Alopecurus myosuroides [7]) was 1 (Herbicidal ratio of 5% or higher and lower than 20%). For the same compound, the “K: Lolium multiflorum Lam., herbicidal effect grade” value (Lolium multiflorum Lam. [8]) was 2 (Herbicidal ratio of 20% or higher and lower than 40%), the “L: Apera spica-venti, herbicidal effect grade” value (Apera spica-venti [9]) was 0 (Herbicidal ratio of 5% or lower (almost no effect)) and the “M: Abutilon theophrasti, herbicidal effect grade” value (Abutilon theophrasti [10]) was 0 (Herbicidal ratio of 5% or lower (almost no effect)). The “N: Amaranthus retroflexus, herbicidal effect grade” value (Amaranthus retroflexus [11]) was 0 (Herbicidal ratio of 5% or lower (almost no effect)), the “P: Stellaria media, herbicidal effect grade” value (Stellaria media [12]) was 0 (Herbicidal ratio of 5% or lower (almost no effect)) and the “R: Veronica persica, herbicidal effect grade” value (Veronica persica [13]) was 0 (Herbicidal ratio of 5% or lower (almost no effect)). For the same compound, the “c: corn, effect on crop grade” value (corn [14]) was 1 (Herbicidal ratio of 5% or higher and lower than 20%), the “d: soybean, effect on crop grade” value (soybean [15]) was 0 (Herbicidal ratio of 5% or lower (almost no effect)) and the “b: directly sowed rice plant, effect on crop grade” value (rice) was 4 (Herbicidal ratio of 70% or higher and lower than 90%). The “e: wheat, effect on crop grade” value (wheat [16]) was 0 (Herbicidal ratio of 5% or lower (almost no effect)), the “f: beet, effect on crop grade” value (beet [17]) was 0 (Herbicidal ratio of 5% or lower (almost no effect)) and the “g: rapeseed, effect on crop grade” value (rapeseed [18]) was 0 (Herbicidal ratio of 5% or lower (almost no effect)). The “F: Digitaria ciliaris, herbicidal effect grade” value (Digitaria ciliaris [19]) was 0 (Herbicidal ratio of 5% or lower (almost no effect)), the “G: Setaria viridis, herbicidal effect grade” value (Setaria viridis [20]) was 5 (Herbicidal ratio of 90% or more (almost completely withered)) and the “H: Echinochloa crus-galli var. crus-galli, herbicidal effect grade” value [21] was 3 (Herbicidal ratio of 40% or higher and lower than 70%). For the same compound, the “I: Avena fatua, herbicidal effect grade” value (Avena fatua [22]) was 1 (Herbicidal ratio of 5% or higher and lower than 20%), the “J: Alopecurus myosuroides, herbicidal effect grade” value (Alopecurus myosuroides [23]) was 2 (Herbicidal ratio of 20% or higher and lower than 40%) and the “K: Lolium multiflorum Lam., herbicidal effect grade” value (Lolium multiflorum Lam. [24]) was 4 (Herbicidal ratio of 70% or higher and lower than 90%). The “L: Apera spica-venti, herbicidal effect grade” value (Apera spica-venti [25]) was 0 (Herbicidal ratio of 5% or lower (almost no effect)), the “M: Abutilon theophrasti, herbicidal effect grade” value (Abutilon theophrasti [26]) was 0 (Herbicidal ratio of 5% or lower (almost no effect)) and the “N: Amaranthus retroflexus, herbicidal effect grade” value (Amaranthus retroflexus [27]) was 0 (Herbicidal ratio of 5% or lower (almost no effect)). The “P: Stellaria media, herbicidal effect grade” value (Stellaria media [28]) was 0 (Herbicidal ratio of 5% or lower (almost no effect)), the “Q: Galium spurium, herbicidal effect grade” value (Galium spurium) was 0 (Herbicidal ratio of 5% or lower (almost no effect)) and the “R: Veronica persica, herbicidal effect grade” value (Veronica persica [29]) was 0 (Herbicidal ratio of 5% or lower (almost no effect)). For the same compound, the “c: corn, effect on crop grade” value (corn [30]) was 1 (Herbicidal ratio of 5% or higher and lower than 20%), the “d: soybean, effect on crop grade” value (soybean [31]) was 0 (Herbicidal ratio of 5% or lower (almost no effect)) and the “b: directly sowed rice plant, effect on crop grade” value (rice plant) was 4 (Herbicidal ratio of 70% or higher and lower than 90%). For the same compound, the “e: wheat, effect on crop grade” value (wheat [32]) was 0 (Herbicidal ratio of 5% or lower (almost no effect)), the “f: beet, effect on crop grade” value (beet [33]) was 0 (Herbicidal ratio of 5% or lower (almost no effect)) and the “g: rapeseed, effect on crop grade” value (rapeseed [34]) was 1 (Herbicidal ratio of 5% or higher and lower than 20%).

From patent US11000033B2, “Ketone or oxime compound, and herbicide” (NISSAN CHEMICAL CORPORATION, priority 2014, dated 2021)
